# Laboratory results taken from patent US7556935B2 (Dana-Farber Cancer Institute, Inc., priority 2001, dated 2009).
# Where two headings read alike, the source gives them in different places.
# Columns and labels:
# c-Abl [1] = experiment: c-Abl levels in the ER fraction, ER stress; format: cell-based
# Protocol: (§1) Cells were treated with A23187 (Sigma) or Brefeldin A (Sigma).
# (§2) Isolation of the ER fraction: Cells were washed with PBS, lysed in homogenization buffer (50 mM Tris-HCl, pH 8.0, 1 mM b-mercaptoethanol, 1 mM EDTA, 0.32 M sucrose and 0.1 mM PMSF), and then centrifuged at 5,000×g for 10 minutes. The supernatant was collected and centrifuged at 105,000×g for 1 hour. […] The resulting supernatant was used as the ER fraction.
# grp78 = grp78 expression in the ER fraction, ER stress; format: cell-based
# Protocol: as §1, §2
# c-Abl [2] = experiment: c-Abl targeting to mitochondria under ER stress, immunofluorescence and immunoblot; format: cell-based; details: mitochondrial fraction
# Protocol: as §1
# Digital confocal immunofluorescence microscope: Cells grown on poly-D-lysine coated glass coverslips were fixed (3.7% formaldehyde in PBS, pH 7.4; 10 minutes), permeabilized (0.2% Triton X-100; 10 min), blocked for 30 minutes in media containing serum. After rinsing with PBS, immunostaining was performed by incubating the cells with 50 ng/slide of anti-c-Abl (K-12 rabbit polyclonal; Santa Cruz) and anti-grp-78 (C-20 goat polyclonal; Santa Cruz). For c-Abl and calreticulin staining, cells were incubated first with anti-c-Abl alone for 1 hour followed by blocking for 30 minutes in media containing serum. After washing with PBS, cells were then incubated with anti-calreticulin (rabbit polyclonal; StressGen). Finally, cells were incubated with a 1:250 dilution of CY-3 or Fluorescein (FITC)-conjugated anti-rabbit or anti-goat secondary antibodies (Jackson ImmunoResearch) for 1 hour. Mitochondria were stained with 0.006 ng/slide Mitotracker Green FM (Molecular Probes). Nuclei were stained with 4,6-diamino-2-phenylindole (DAPI; 1 mg/ml in PBS). Coverslips were mounted onto slides with 0.1 M Tris (pH 7.0) in 50% glycerol. Cells were visualized by digital confocal immunofluorescence and images were captured with cooled CCD camera mounted on a Zeiss Axioplan 2 microscope. Images were deconvolved using Slidebook software (Intelligent Imaging Innovations, Inc., Denver, Colo.).
# (§3) The supernatant was collected and centrifuged at 10,000×g for 10 minutes. […] Protein concentration was determined by the Bio-Rad protein estimation kit.
# c-Abl [3] = experiment: c-Abl levels in cytoplasmic and nuclear fractions, ER stress; format: cell-based
# Excerpt: Isolation of cytoplasmic and nuclear fractions: The cytoplasmic and nuclear fractions were isolated as described in Example 1.
# c-Abl [4] = experiment: Mitochondrial c-Abl kinase activity, GST-Crk(120-225) phosphorylation, ER stress; format: cell-based; details: anti-c-Abl immunoprecipitates of mitochondrial fraction
# Protocol: as §3
# Analysis of c-Abl activity: Cell lysates were prepared as described in Example 1 and subjected to immunoprecipitation with anti-c-Abl (K-12; Santa Cruz). The immunoprecipitates were resuspended in kinase buffer (see Example 1) containing […] of [g-32P]ATP and GST-Crk(120-225) or GST-Crk(120-212) for 15 minutes at 30° C. The reaction products were analyzed by SDS-PAGE and autoradiography.
# MEFs = experiment: Apoptosis by sub-G1 DNA in MEFs under ER stress; format: cell-based, mouse; details: c-Abl−/− cells
# Protocol: Apoptosis assays: DNA content was assessed by staining ethanol-fixed cells with propidium iodide and monitoring by FACScan (Becton-Dickinson).
# c-Abl [5] = experiment: c-Abl immune complex kinase assay, phosphorylation of GST-Crk(120-225), COS7 cells; format: cell-based
# Protocol: (§4) Cell culture: COS7 cells and mouse embryonic fibroblasts (MEFs) derived from wild-type and c-Abl^−/− mice were cultured in Dulbecco's modified Eagle's medium containing 10% heat-inactivated fetal calf serum, 2 mM L-glutamine, 100 units/ml penicillin and 100 μg/ml streptomycin. DLD1 cells were grown as described (Polyak et al. (1997) Nature 389, 300-305). Cells were treated with H2O2 (Sigma), 30 mM N-acetyl-L-cysteine (NAC; Sigma) or 10 μM cis-platinum (Sigma).
# (§5) Analysis of kinase activity: Cell lysates were prepared in lysis buffer (10 mM Tris-HCl, pH 7.5, 10 mM NaCl, 1 mM DTT, 0.1 mM EDTA, 3 mM MgCl2, 0.5 mM PMSF, 5 μg/ml leupeptin) containing 0.5% Nonidet P-40 and subjected to immunoprecipitation as described (Kharbanda et al. (1997) Nature 386, 732-735) with anti-c-Abl (sc-23; Santa Cruz) or mouse IgG (Santa Cruz). The immunoprecipitates were resuspended in kinase buffer (20 mM HEPES, pH 7.4, 10 mM MgCl2, 10 mM MnCl2) containing 2.5 μCi [g-32P]ATP and GST-Crk(120-225) or GST-Crk(120-212) for 20 minutes at 30° C. Anti-PKCd (sc-937; Santa Cruz) and anti-ERK1 (sc-93; Santa Cruz) immunoprecipitates were analyzed by using histone H1 and myelin basic protein (Upstate Biotecnology Inc.), respectively, as substrates. The reaction products were analyzed by SDS-PAGE and autoradiography.
# c-Abl [6] = experiment: c-Abl activity in cytoplasts devoid of nuclei; format: cell-based
# Protocol: as §5
# cytochrome c [7] = details: wild-type MEFs
# Protocol: as §4
# cytochrome c [8] = experiment: Cytochrome c release in U-937 cells, immunoblot of cytoplasmic fractions; format: cell-based, human; details: for cytochrome c release: U-937 cells, agent alone; for effect on H2O2-induced release of cytochrome c: U-937 cells pretreated with NAC (30 mM) or rottlerin (10 µM)
# Protocol: (§6) Cells were also treated with 10 μM rottlerin (Calbiochem).
# (§7) Transfections were performed with Superfect (Qiagen).
# (§8) The cells were disrupted by Douce homogenization.
# PKCd [9] = target: PKCd (Mus musculus, UniProt P28867); design: effect on H2O2-induced translocation of PKCd to mitochondria: dose or concentration left out as unconfirmed; details: NIH3T3 cells
# Sequence of PKCd (Mus musculus, UniProt P28867) (P28867 whole entry): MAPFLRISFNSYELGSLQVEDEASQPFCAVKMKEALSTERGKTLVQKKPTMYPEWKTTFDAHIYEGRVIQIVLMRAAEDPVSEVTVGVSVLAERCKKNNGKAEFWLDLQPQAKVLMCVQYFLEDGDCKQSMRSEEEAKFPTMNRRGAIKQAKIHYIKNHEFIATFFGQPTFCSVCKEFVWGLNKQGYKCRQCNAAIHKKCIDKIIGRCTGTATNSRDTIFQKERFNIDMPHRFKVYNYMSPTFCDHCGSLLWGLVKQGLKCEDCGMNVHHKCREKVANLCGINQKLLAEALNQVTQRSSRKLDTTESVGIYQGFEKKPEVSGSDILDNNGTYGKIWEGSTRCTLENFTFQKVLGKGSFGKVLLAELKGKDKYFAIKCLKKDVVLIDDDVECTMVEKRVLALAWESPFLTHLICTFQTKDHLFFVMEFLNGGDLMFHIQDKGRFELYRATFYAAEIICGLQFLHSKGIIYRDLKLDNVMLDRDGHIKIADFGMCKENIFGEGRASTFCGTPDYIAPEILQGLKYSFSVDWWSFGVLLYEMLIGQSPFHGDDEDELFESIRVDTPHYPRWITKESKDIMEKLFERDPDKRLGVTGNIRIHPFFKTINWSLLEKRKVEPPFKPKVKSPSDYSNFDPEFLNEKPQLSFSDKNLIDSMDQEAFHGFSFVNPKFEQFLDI
# Protocol: as §7
# (§9) The supernatants (S1) were collected.
# c-Abl [10] = experiment: c-Abl translocation to mitochondria in MEFs, oxidative stress; format: cell-based, mouse
# Protocol: Cells were treated with 1 mM H2O2 (Sigma) and 30 mM N-acetyl-L-cysteine (NAC; Sigma). Transient transfections were performed in the presence of calcium phosphate.
# Immunofluorescence microscopy: Cells were plated onto poly D-lysine coated glass coverslips 1 day prior to H2O2 treatment (1 hour) and then fixed with 3.7% formaldehyde/PBS (pH 7.4) for 10 minutes. Cells were washed with PBS, permeabilized with 0.2% Triton X-100 for 10 minutes, washed again and incubated for 30 minutes in complete medium. The coverslips were then incubated with […] of anti-c-Abl (K-12) for 1 hour followed by Texas Red-goat anti-rabbit Ig (H+L) conjugate (Molecular Probes, Eugene, Oreg.). Mitochondria were stained with 100 nM Mitotracker Green FM (Molecular Probes, OR). Nuclei were stained with 4,6-diamino-2-phenylindole (DAPI; 1 mg/ml in PBS). Coverslips were mounted onto slides with 0.1 M Tris (pH 7.0) in 50% glycerol. Cells were visualized by digital confocal immunofluorescence and images were captured with a cooled CCD camera mounted on a Zeiss Axioplan 2 microscope. Images were deconvolved using Slidebook software (Intelligent Imaging Innovations, Inc., Denver, Colo.).
# Protein concentration was determined by the Bio-Rad protein estimation kit.
# Preparation of cell lysates: Whole cell lysates (WCL) were prepared as described (Kharbanda et al. (1995) Nature 376, 785-788) and analyzed for protein concentration.
# Immunoprecipitation and immunoblot analysis. Soluble proteins ([…]) were incubated with anti-c-Abl (K-12; Santa Cruz Biotechnology) for 1 hour and precipitated with protein A-sepharose for 30 minutes. Immunoprecipitates and lysates ([…]) were resolved by SDS-PAGE and analyzed by immunoblotting with anti-c-Abl (24-11; Santa Cruz), anti-HSP60 (Stressgen, Victoria, British Columbia), anti-b-actin (Sigma) anti-PCNA (Calbiochem), anti-PDGF receptor (Oncogene) and anti-PKCd (Santa Cruz).
# ATP levels = details: wild-type and c-Abl+ cells, H2O2
# Protocol: Quantitation of ATP: ATP levels were measured using an ATP Determination Kit (Molecular Probes).
# MCF-7/neo cells = experiment: Apoptosis by sub-G1 DNA content in MCF-7/neo cells
# PKCγ = PKCγ (Homo sapiens, UniProt P05129); experiment: Cytoplasmic or mitochondrial PKCγ levels in U-937 cells, immunoblot
# PKCζ = experiment: Cytoplasmic or mitochondrial PKCζ levels in U-937 cells, immunoblot
# [11] = tested on: mitochondrial transmembrane potential; experiment: Mitochondrial transmembrane potential, Rhodamine 123 staining, MEFs; design: effect on H2O2-induced change in Ψ: dose or concentration left out as unconfirmed
# PKCd [12] = target: T1, PKCd (Homo sapiens, UniProt Q05655); experiment: PKCd translocation to mitochondria in U-937 cells, immunoblot of fractions; format: cell-based; design: subjecting cytoplasmic and mitochondrial fractions to immunoblotting with anti-PKC antibodies; endogenous in cells; host or cells: U-937
# T1 sequence (Q05655 whole entry): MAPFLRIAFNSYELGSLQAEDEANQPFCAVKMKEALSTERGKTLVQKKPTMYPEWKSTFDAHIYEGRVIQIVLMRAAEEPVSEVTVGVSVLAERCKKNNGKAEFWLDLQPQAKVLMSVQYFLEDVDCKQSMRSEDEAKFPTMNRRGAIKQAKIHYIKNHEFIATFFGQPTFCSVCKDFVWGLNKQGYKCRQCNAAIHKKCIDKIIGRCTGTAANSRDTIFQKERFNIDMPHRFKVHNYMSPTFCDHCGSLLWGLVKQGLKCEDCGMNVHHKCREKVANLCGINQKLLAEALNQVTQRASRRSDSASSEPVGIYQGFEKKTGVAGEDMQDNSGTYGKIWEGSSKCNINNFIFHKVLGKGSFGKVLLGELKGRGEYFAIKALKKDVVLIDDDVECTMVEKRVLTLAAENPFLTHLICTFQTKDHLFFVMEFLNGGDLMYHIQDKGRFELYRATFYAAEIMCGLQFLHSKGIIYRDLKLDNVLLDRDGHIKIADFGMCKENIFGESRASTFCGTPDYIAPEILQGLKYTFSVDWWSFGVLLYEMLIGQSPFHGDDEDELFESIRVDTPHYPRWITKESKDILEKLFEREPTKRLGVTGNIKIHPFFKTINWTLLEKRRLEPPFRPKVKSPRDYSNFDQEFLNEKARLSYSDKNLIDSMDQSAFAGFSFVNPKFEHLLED
# Protocol: as §6
# Mitochondria were stained with 0.006 ng/slide of Mitotracker Green FM (Molecular Probes). The slides were analyzed using a Zeiss Auxiphot fluorescence microscope coupled to a CCD camera and a power Macintosh 8100. Image analysis was performed using the IPLab Spectrum 3.1 software (Signal Analytics).
# as §7, §8, §9
# Mitochondria were stained with 0.006 ng/slide of Mitotracker Green FM (Molecular Probes). The slides were analyzed with a Zeiss Auxiphot fluorescence microscope coupled to a CCD camera and a power Macintosh 8100. Image analysis was performed using the IPLab Spectrum 3.1 software (Signal Analytics).
# PKCd [13] = target: T1, PKCd; details: MCF-7 cells, TPA
# Protocol: Cell culture and reagents: Human U-937 myeloid leukemia cells (ATCC, Rockville, Md.) were grown in RPMI 1640 medium supplemented with 10% heat-inactivated fetal bovine serum (FBS), 100 units/ml penicillin, 100 μg/ml streptomycin, and 2 mM L-glutamine. MCF-7, MCF-7/neo, MCF-7/PKCdRD and 293T cells were grown in Dulbecco's modified Eagle's medium (DMEM) containing 10% FBS. […] Cells were also treated with 10 μM rottlerin (Calbiochem).
# catalase = experiment: Catalase levels in MEFs; format: cell-based, mouse
# Excerpt: As a control, degradation was inhibited when [g-S]ATP was substituted for ATP to prevent ubiquitination. […] Lactacystin, another proteosome inhibitor, was used to assess degradation of catalase in cells.
# U-937 cells = experiment: Apoptosis by sub-G1 DNA content in U-937 cells; format: cell-based, human
compound,measurement,setting,value
C[C@H]1CCC/C=C/[C@@H]2C[C@H](O)C[C@H]2[C@H](O)/C=C/C(=O)O1 [Brefeldin A],c-Abl levels in the ER fraction,c-Abl [1],decreases
same,expression of grp78,grp78,increases in grp78
same,"c-Abl protein in the mitochondrial fraction, immunoblot",c-Abl [2],increases in c-Abl protein
same,c-Abl levels in the cytoplasm or nucleus,c-Abl [3],no detectable effect
same,mitochondrial c-Abl activity,c-Abl [4],increases in mitochondrial c-Abl activity
same,induction of apoptosis,MEFs,abrogated
"OO [H2O2, hydrogen peroxide]",stimulation of the Crk kinase activity of anti-c-Abl immunoprecipitates,"c-Abl [5]; COS7 cells exposed to H2O2, GST-Crk(120-225) substrate",4-5 fold
same,time of maximal induction of c-Abl activity,c-Abl [5]; H2O2 exposure,30 to 60 min
same,induction of c-Abl activity,c-Abl [5]; exposure to 1 mM H2O2,5 fold
same,c-Abl activity in cytoplasts,c-Abl [6],induction of c-Abl activity
same,cytochrome c in cytoplasmic lysates,cytochrome c [7],increased levels of cytochrome c
same,cytochrome c release,cytochrome c [8],induces cytochrome c release
same,localization of PKCd to mitochondria,PKCd [9]; H2O2,localization of PKCd to mitochondria
same,total c-Abl that localizes to mitochondria,"c-Abl [10]; MEFs following H2O2, approximately 4% without treatment",approximately 20%
same,"increase in mitochondrial c-Abl protein, densitometric scanning","c-Abl [10]; MEFs, 0.5 to 1 hour of H2O2 treatment",> 5 fold
same,ATP levels,ATP levels,depletion of ATP
same,apoptosis,MCF-7/neo cells,induction of apoptosis
same,mitochondrial levels of PKCγ,PKCγ; H2O2,little if any effect
same,mitochondrial levels of PKCζ,PKCζ; H2O2,little if any effect
same,mitochondrial transmembrane potential (Ψ),"[11]; wild-type cells, H2O2",substantially diminished
same,mitochondrial PKCd,PKCd [12]; 1 mM H2O2,increases in mitochondrial PKCd
"CC(=O)N[C@@H](CS)C(=O)O [NAC, N-acetyl-L-cysteine]",effect on H2O2-induced phosphorylation of GST-Crk(120-225) by c-Abl,c-Abl [5]; 30 mM NAC,inhibited
same,effect on H2O2-induced release of cytochrome c,cytochrome c [8],blocks
same,effect on H2O2-induced translocation of c-Abl to mitochondria,c-Abl [10]; MEFs,inhibited
same,effect on H2O2-induced localization of PKCd to mitochondria,PKCd [12]; 30 mM NAC,inhibits
CCCCCCCCCCCCCC(=O)O[C@@H]1[C@@H](C)[C@@]2(O)[C@@H](C=C(CO)C[C@]3(O)C(=O)C(C)=C[C@@H]23)[C@H]2C(C)(C)[C@]12OC(C)=O [TPA],cytochrome c release,cytochrome c [8],cytochrome c release
same,translocation of PKCd to mitochondria,PKCd [13],translocates to mitochondria
same,apoptosis,MCF-7/neo cells,induction of apoptosis
same,cytoplasmic or mitochondrial levels of PKCγ,PKCγ; TPA,no detectable effect
same,cytoplasmic or mitochondrial levels of PKCζ,PKCζ; TPA,no detectable effect
same,translocation of PKCd to mitochondria,"PKCd [12]; 250 nM TPA, 100 nM bryostatin, 0.5 units/ml PLC, 10 μM DOG",increases in mitochondrial PKCd
same,percent PKCd translocation to mitochondria,"PKCd [12]; 250 nM TPA, scanned immunoblots",approximately 40%
"N.N.[Cl][Pt][Cl] [cisplatin, cis-platinum]",c-Abl activity in cytoplasts,c-Abl [6],no detectable effect
CC(=O)N[C@@H](CSC(=O)[C@]1([C@@H](O)C(C)C)NC(=O)[C@H](C)[C@@H]1O)C(=O)O [lactacystin],catalase levels,catalase; c-abl−/−arg−/− cells,little if any effect
same,catalase levels,catalase; wild-type MEFs,increase in catalase levels
CC(=O)c1c(O)c(C)c(O)c(Cc2c(O)c3c(c(C(=O)/C=C/c4ccccc4)c2O)OC(C)(C)C=C3)c1O [rottlerin],effect on H2O2-induced release of cytochrome c,cytochrome c [8],blocked
same,effect on TPA-induced cytochrome c release,cytochrome c [8]; U-937 cells pretreated with rottlerin before TPA,significantly blocks
same,cytochrome c release,cytochrome c [8],detectable release of cytochrome c
same,"apoptosis, sub-G1 DNA content",U-937 cells; rottlerin alone,low level of apoptosis
same,effect on apoptotic response to TPA,U-937 cells; rottlerin and TPA,significantly attenuated
same,effect on H2O2-induced translocation of PKCd to mitochondria,PKCd [9]; rottlerin,inhibits
same,effect on H2O2-induced translocation of c-Abl to mitochondria,c-Abl [10]; MEFs,inhibited
same,constitutive levels of mitochondrial c-Abl,"c-Abl [10]; MEFs, rottlerin alone",no effect
same,effect on TPA-induced localization of PKCd to mitochondria,PKCd [12]; 10 μM rottlerin,abrogated
cyclosporin A,effect on H2O2-induced change in Ψ,[11]; wild-type MEFs pretreated with cyclosporin A,abrogated
